{"source": "patent US8227421B2", "about": "“Fluorinated GHRH antagonists” (University of Miami, priority 2009, dated 2012)", "test_system": "PC-3 human hormone-independent prostate cancer", "assay": "Effect of treatment with GH-RH antagonists on PC-3 human prostate cancer xenografts in nude mice", "format": "in vivo", "details": "male nude mice, s.c. PC-3 xenografts, 2 ug/day s.c.", "method": "Male nude mice were implanted s.c. with 3 mm3 pieces of PC-3 human hormone-independent prostate cancer tissue on both flanks. When tumors reached a volume of approximately 50 mm3, the mice were divided into 14 experimental groups with 8 to 10 animals in each group and received single daily injections for 28 as follows: 1. Control (vehicle solution); 2. P-12211 (2 μg/day s.c.); 3. P-12307 (2 μg/day s.c.); 4. P-12317 (2 μg/day s.c.); 5. P-12408 (2 μg/day s.c.); 6. P-12409 (2 μg/day s.c.); 7. P-12457 (2 μg/day s.c.); 8. P-12473 (2 μg/day s.c.); 9. P-12479 (2 μg/day s.c.); 10. P-12600 (2 μg/day s.c.); 11. P-12601 (2 μg/day s.c.); 12. P-12602 (2 μg/day s.c.); 13. P-12603 (2 μg/day s.c.); and 14. P-12610 (2 μg/day s.c.).\nThe inhibitory effect of P-12473, P-12479, P-12600, P-12601, P-12602, and P-12610 were statistically significant (p<0.001).\nEffect of Treatment with GH-RH Antagonists on PC-3 Human Prostate Cancer Xenografts in Nude Mice"}
{"substance": "[PhAc^0-Tyr^1, D-Arg^2, Cpa^6, Ala^8, Har^9, Fpa5^10, His^11, Orn^12, Abu^15, His^20, Orn^21, Nle^27, D-Arg^28, Har^29, Ada^30]hGH-RH(1-30)NH2 [Peptide P-12610]", "values": [{"measurement": "Tumor Growth after 4 weeks (%)", "setting": "single daily injections for 28", "result": 474.98, "unit": "%"}, {"measurement": "Tumor growth inhibition after 4 weeks (%)", "setting": "single daily injections for 28, versus control", "result": 77.78, "unit": "%"}]}
